Test results published in patent publication US20260248788A1, “NEW COMPOUNDS AND TREATMENT OF RENAL CELL CARCINOMA” (TRUSTLIFE THERAPEUTICS INC., priority 2023, published 2026).
Entries after “also recorded” stand apart in the source; their conditions may differ.

Columns and labels:
Assay type in all cases: cell-based, human
[1] = test system: BUB1B; experiment: Western blot of BUB1B in Caki-1 cells treated with TG-101209 derivatives; conditions: for expression levels of BUB1B (Western blot): Caki-1 cells, 5 μM of target drug, 1 day (FIG. 41, 56); for expression levels of BUB1B (summary statement): concentration not given
Protocol: (§1) Cell culture 2: Caki-1 was purchased from CLS Cell Lines Service (Germany). The cells were maintained in McCoy's 5A (modified) medium (16600082, Thermo Fisher Scientific, USA) and supplemented with 10% fetal bovine serum (FBS, F7524, Sigma-Aldrich), 1% Penicillin/Streptomycin (P4333, Sigma-Aldrich).
The target drugs developed as alternatives to TG-101209, were dissolved in 0.1% DMSO (41639, Sigma-Aldrich). Caki-1 cells from cell culture 2 were seeded in a 6-well plate at 3×10^5 cells per well. […]
The cells were washed with PBS solution and then lysed with CelLytic M (C2978, Sigma-Aldrich) lysis buffer containing protease inhibitors (11836170001, Roche). The cell lysates were centrifuged at 12 000 rpm for 10 min and supernatants were collected. Protein Assay Dye Reagent (5000006, Bio-Rad) was used for the determination of protein concentration. The absorbance of the proteins was measured spectrophotometrically at 595 nm by a microplate reader (Hidex Sense Beta Plus). Protein electrophoresis was performed using Mini-PROTEAN® TGX™ Precast Gels (4561086, Bio-Rad) and then the separated proteins were transferred to a Trans-Blot Turbo Mini 0.2 μm PVDF Transfer Packs membrane (1704158, Bio-Rad) by using Trans-Blot® Turbo™ Transfer System (Bio-Rad). The membrane was blocked with 5% skim milk for 30 min at 4° C. with gentle rocking. After blocking, the membrane was treated with primary antibodies: Anti-BUB1B (HPA008419, Human Protein Atlas, Sweden) and Anti-Beta actin (ab8227, Abcam) as a loading control overnight at 4° C. on a rocking platform. After the treatment of primary antibodies, the membrane was washed three times with TBS-T buffer (A09-7500-100, Medicago). Then, Goat anti-Rabbit IgG-HRP (ab205718, Abcam) was treated as the secondary antibody for 30 min at 4° C. with gentle rocking.

[2] = test system: Caki-1 cells; experiment: MTT cell viability assay; conditions: for cell viability of treated cells (summary statement): concentration not given; for reduction in cell viability (MTT) / effect on cell viability (MTT): 1 day
Protocol: as §1
The cytotoxic effects of the TG-101209 and its alternatives on the Caki-1 cells were tested by MTT (Thiazolyl Blue Tetrazolium Bromide) method. 1.5×10^4 cells were seeded per well in a 96-well plate in 100 μL growth media. […] After the incubation period, 5 mg/ml MTT (M2128, Sigma-Aldrich) solution in PBS (10 μL) was added to each well. After 1 hour, the MTT solution and all media were removed from the wells. 100 μl of DMSO was added and mixed to dissolve the formazan crystals. Cell viability was analysed by measuring the absorbance of the dissolved formazan at a wavelength of 570 nm with a microplate reader (Hidex Sense Beta Plus).

[3] = test system: Caki-1 cells; experiment: LDH cytotoxicity assay; conditions: 1 day; for cytotoxicity (LDH assay): Caki-1, 10 μM; for Ranking, Cytotoxicity (%): top five, LDH assay, 10 μM, rank 1 = highest
Protocol: as §1
Lactate dehydrogenase (LDH) assay was performed with LDH Assay Kit (ab65393). […] 20 μl of media was analysed with LDH Assay Kit as per manufacturer's instruction.

SMILES	expression levels of BUB1B (Western blot) [1]	expression levels of BUB1B (summary statement) [1]	cell viability of treated cells (summary statement) [2]	reduction in cell viability (MTT) ([2]; Caki-1, 5 μM, first batch)	other results
Cc1cnc(Nc2ccc(N3CCN(C)CC3)cc2)nc1Nc1cccc(S(=O)(=O)Nc2ccccc2)c1 [Compound M3, 3-((5-methyl-2-((4-(4-methylpiperazin-1-yl)phenyl)amino)pyrimidin-4-yl)amino)-N-phenylbenzenesulfonamide]	significantly lower the expression levels of BUB1B	–	–	–	–
Cc1cnc(Nc2ccc(N3CCN(C)CC3)cc2)nc1Nc1cccc(S(=O)(=O)N2CCOCC2)c1 [Compound M7, 5-methyl-N2-(4-(4-methylpiperazin-1-yl)phenyl)-N4-(3-(morpholinosulfonyl)phenyl)pyrimidine-2,4-diamine]	significantly lower the expression levels of BUB1B	reduction of the expression levels of BUB1B	especially low cell viability; also recorded: reduced cell viability	–	–
Cc1cn(-c2cc(Nc3ncc(C)c(Nc4cccc(S(=O)(=O)NC(C)(C)C)c4)n3)cc(C(F)(F)F)c2)cn1 [Compound M64, N-(tert-butyl)-3-((5-methyl-2-((3-(4-methyl-1H-imidazol-1-yl)-5-(trifluoromethyl)phenyl)amino)pyrimidin-4-yl)amino)benzenesulfonamide]	significantly lower the expression levels of BUB1B	–	–	–	–
COc1cc(Nc2ncc(C)c(Nc3cccc(S(=O)(=O)NC(C)(C)C)c3)n2)cc(OC)c1 [Compound M79, N-(tert-butyl)-3-((2-((3,5-dimethoxyphenyl)amino)-5-methylpyrimidin-4-yl)amino)benzenesulfonamide]	significantly lower the expression levels of BUB1B	reduction of the expression levels of BUB1B	especially low cell viability; also recorded: significantly reduced cell viability	–	–
Cc1ccc(Nc2ncc(C)c(Nc3cccc(S(=O)(=O)NC(C)(C)C)c3)n2)cc1Nc1nc(-c2cccnc2)cs1 [Compound M88, N-(tert-butyl)-3-((5-methyl-2-((4-methyl-3-((4-(pyridin-3-yl)thiazol-2-yl)amino)phenyl)amino)pyrimidin-4-yl)amino)benzenesulfonamide]	significantly lower the expression levels of BUB1B	reduction of the expression levels of BUB1B	especially low cell viability; also recorded: significantly reduced cell viability	–	IC50 ([2]; Homo sapiens, 24 h, Caki-1, 1 day (FIG. 43), text: after treatment with 5 μM): > 3000 nM
COc1cc(NC(=O)c2ccc(Nc3ncc(C)c(Nc4cccc(S(=O)(=O)NC(C)(C)C)c4)n3)cc2)cc(OC)c1 [Compound M101A, 4-((4-((3-(N-(tert-butyl)sulfamoyl)phenyl)amino)-5-methylpyrimidin-2-yl)amino)-N-(3,5-dimethoxyphenyl)benzamide]	–	–	particularly low cell viability; also recorded: significantly reduced cell viability	the greatest	effect on cell viability (MTT) ([2]; Caki-1, 10 μM, first batch): most profound effect; cytotoxicity (LDH assay) ([3]; first batch): exhibited cytotoxicity; Ranking, Cytotoxicity (%) [3]: 5
Cc1cnc(Nc2ccc(C(=O)Nc3cccc(Br)c3)cc2)nc1Nc1cccc(S(=O)(=O)NC(C)(C)C)c1 [Compound M101B, N-(3-bromophenyl)-4-((4-((3-(N-(tert-butyl)sulfamoyl)phenyl)amino)-5-methylpyrimidin-2-yl)amino)benzamide]	–	–	particularly low cell viability; also recorded: significantly reduced cell viability	the greatest	cytotoxicity (LDH assay) ([3]; first batch): exhibited cytotoxicity; Ranking, Cytotoxicity (%) [3]: 3
Cc1cnc(Nc2ccc(C(=O)Nc3cccc(S(=O)(=O)NC(C)(C)C)c3)cc2)nc1Nc1cccc(S(=O)(=O)NC(C)(C)C)c1 [Compound M101D, N-(3-(N-(tert-butyl)sulfamoyl)phenyl)-4-((4-((3-(N-(tert-butyl)sulfamoyl)phenyl)amino)-5-methylpyrimidin-2-yl)amino)benzamide]	–	–	particularly low cell viability; also recorded: significantly reduced cell viability	the greatest	effect on cell viability (MTT) ([2]; Caki-1, 10 μM, first batch): greatest reduction of cell viability; cytotoxicity (LDH assay) ([3]; first batch): highest cytotoxicity; Ranking, Cytotoxicity (%) [3]: 1
Cc1cnc(Nc2ccc(C(=O)Nc3cccc(S(=O)(=O)N4CCOCC4)c3)cc2)nc1Nc1cccc(S(=O)(=O)NC(C)(C)C)c1 [Compound M101F, 4-((4-((3-(N-(tert-butyl)sulfamoyl)phenyl)amino)-5-methylpyrimidin-2-yl)amino)-N-(3-(morpholinosulfonyl)phenyl)benzamide]	–	–	particularly low cell viability; also recorded: significantly reduced cell viability	the greatest	cytotoxicity (LDH assay) ([3]; first batch): exhibited cytotoxicity
Cc1cnc(Nc2ccc(C(=O)Nc3ccc(OCCCN4CCOCC4)cc3)cc2)nc1Nc1cccc(S(=O)(=O)NC(C)(C)C)c1 [Compound M101G, 4-((4-((3-(N-(tert-butyl)sulfamoyl)phenyl)amino)-5-methylpyrimidin-2-yl)amino)-N-(4-(3-morpholinopropoxy)phenyl)benzamide]	–	–	particularly low cell viability; also recorded: significantly reduced cell viability	the greatest	–
Cc1cnc(Nc2ccc(C(=O)Nc3ccc4ncccc4c3)cc2)nc1Nc1cccc(S(=O)(=O)NC(C)(C)C)c1 [Compound M101H, 4-((4-((3-(N-(tert-butyl)sulfamoyl)phenyl)amino)-5-methylpyrimidin-2-yl)amino)-N-(quinolin-6-yl)benzamide]	–	–	particularly low cell viability; also recorded: significantly reduced cell viability	the greatest	–
Cc1ccc(NC(=O)c2ccc(Nc3ncc(C)c(Nc4cccc(S(=O)(=O)NC(C)(C)C)c4)n3)cc2)cc1S(N)(=O)=O [Compound M101Q, 4-((4-((3-(N-(tert-butyl)sulfamoyl)phenyl)amino)-5-methylpyrimidin-2-yl)amino)-N-(4-methyl-3-sulfamoylphenyl)benzamide]	–	–	–	–	cytotoxicity (LDH assay) ([3]; second batch): greatest cytotoxicity
Cc1cnc(Nc2ccc(C(=O)Nc3ccc(Oc4ccc(Cl)cc4)nc3)cc2)nc1Nc1cccc(S(=O)(=O)NC(C)(C)C)c1 [Compound M101V, 4-((4-((3-(N-(tert-butyl)sulfamoyl)phenyl)amino)-5-methylpyrimidin-2-yl)amino)-N-(6-(4-chlorophenoxy)pyridin-3-yl)benzamide]	–	–	–	–	cytotoxicity (LDH assay) ([3]; second batch): greatest cytotoxicity
COc1cc(Nc2ncc(C)c(Nc3cccc(S(=O)(=O)N4CCOCC4)c3)n2)cc(OC)c1OC [Compound M115, 5-methyl-N4-(3-(morpholinosulfonyl)phenyl)-N2-(3,4,5-trimethoxyphenyl)pyrimidine-2,4-diamine]	–	reduction of the expression levels of BUB1B	especially low cell viability; also recorded: reduced cell viability	–	–
COc1cc(Nc2ncc(C)c(Nc3ccc(N4CCN(C)CC4)cc3)n2)cc(OC)c1OC [Compound M119, 5-methyl-N4-(4-(4-methylpiperazin-1-yl)phenyl)-N2-(3,4,5-trimethoxyphenyl)pyrimidine-2,4-diamine]	–	reduction of the expression levels of BUB1B	especially low cell viability; also recorded: significantly reduced cell viability	–	–
Cc1cnc(Nc2ccc(C(=O)Nc3ccc(N4CCN(C)CC4)cc3)cc2)nc1Nc1ccc(N2CCN(C)CC2)cc1 [ME3, 4-((5-methyl-4-((4-(4-methylpiperazin-1-yl)phenyl)amino)pyrimidin-2-yl)amino)-N-(4-(4-methylpiperazin-1-yl)phenyl)benzamide]	–	–	particularly low cell viability; also recorded: significantly reduced cell viability	–	reduction in cell viability (MTT) ([2]; Caki-1, 10 μM, second batch): the greatest
